Measurements: publication PMC11359831, “Stepwise Structural Simplification of the Dihydroxyanthraquinone Moiety of a Multitarget Rhein-Based Anti-Alzheimer Lead to Improve Drug Metabolism and Pharmacokinetic Properties” (Pharmaceutics, 2024)

Columns and labels:
Aβ42 aggregation = molecular target: T1, Aβ42 aggregation (Homo sapiens, UniProt P05067); experiment: Aβ42 aggregation inhibition in genetically modified E. coli cells (Th-S fluorescence); assay type: cell-based, Escherichia coli; details: for inhibition at 10 µM: live E. coli cells overexpressing Aβ42, read-out: Aβ42 Aggregation % inh. @10 µM
T1 construct: expressed in transfected cells; host or cells: E. coli BL21 (DE3) bearing pET28a-Aβ42
Method: For Aβ42 overexpression, M9 minimal medium (10 mL) containing kanamycin (50 μg/mL) was added to a colony of E. coli BL21 (DE3) competent cells, bearing the pET28a plasmid (Novagen, Inc., Madison, WI, USA), which contains the DNA sequence encoding for Aβ42. After overnight culture, the volume necessary to obtain a 1:500 dilution was added to fresh M9 minimal medium that contained kanamycin (50 μg/mL) and thioflavin-S (Th-S, 250 µM).
(§1) For Aβ42 overexpression, the corresponding E. coli cell cultures were kept growing overnight (37 °C; 250 rpm) until they reached an OD600 = 0.6. These cultures (980 μL) were added to a mixture of 10 μL of a solution of the new compounds in DMSO and 10 μL of 100 mM isopropyl 1-thio-β-D-galactopyranoside (IPTG), to reach a final compound concentration of 10 μM. The same procedure was used for tau overexpression but employing 10 μL of 25% arabinose instead of IPTG. The resulting E. coli cultures were kept growing overnight (37 °C; 1400 rpm) using an Eppendorf Thermomixer (Hamburg, Germany). To prepare a negative control for the assay, showing the highest amount of the amyloidogenic protein, the same quantity of DMSO, without the compounds to be tested, was added to the sample. With the double purpose of obtaining positive controls devoid of the amyloidogenic proteins and assessing the potential intrinsic toxicity of the new compounds, we also prepared samples that had not been treated with either IPTG or arabinose (non-induced samples).
(§2) To assess the inhibitory activity of compounds 4–7 on Aβ42 and tau aggregation within E. coli cells, a fluorescence assay was employed, using Th-S ([…] stock solution, T1892, Sigma, St. Louis, MO, USA) in double-distilled water (Milli-Q system, Millipore, Bay City, MI, USA) and an Aminco Bowman Series 2 luminescence spectrophotometer (Aminco-Bowman AB2, SLM Aminco, Rochester, NY, USA), working at 25 °C in the wavelength range of 460–600 nm, with λex = 445 nm, slit widths of 4 nm, and λem = 485 nm. The results are given as the average of nine independent experiments, each performed in triplicate.

[1] = Fish embryo acute toxicity (FET) test in zebrafish embryos; assay type: in vivo; details: in vivo, other: embryos exposed by immersion in the test solution, pH 7.4, 72 h of exposure, read-out: LC50 (CI95)
Method: Test solutions were freshly prepared for each experiment and were renewed every 24 h. The maximum tested compound concentration was 100 µM and four additional concentrations were also prepared by applying a 1:2 dilution factor. A 1% DMSO solution was used as a vehicle control.
Six-well plates were incubated at 26 ± 1 °C under a 14:10 light:dark cycle for 72 h. To assess the potential lethality of the new compounds, we followed, every 24 h, the four parameters that are outlined in the OECD Guideline No. 236: embryo coagulation, lack of somite formation, non-detachment of the tail, and absence of a heartbeat (from 48 h onward). The percentage of lethality at each concentration that was tested for the new compounds was recorded and expressed as mean ± SEM from three or more independent experiments. […] LOAEC values were determined through an ANOVA test with Bonferroni’s post-hoc test for multiple comparisons (significance threshold: p < 0.05).

[2] = Plasma stability, mouse plasma; assay type: in vitro ADME; details: 37 °C; for remaining at 1 h, 5 μM: read-out: Plasma Stability % Remaining Compound, mouse, 1 h; for remaining at 6 h, 5 μM: read-out: Plasma Stability % Remaining Compound, mouse, 6 h
Method: The plasma stability of the new compounds was tested using in human, mouse, and rat plasma (Seralab). One hundred μL of 5 μM solutions of the new compounds in plasma were plated and incubated at 37 °C for 0, 60, 120, and 360 min, and then treated with 300 μL of acetonitrile and centrifuged (4000× g; 60 min; 4 °C). Sample quantification was performed by UPLC/MS/MS analysis of the resulting supernatant using a UPLC QSM Waters Acquity apparatus, equipped with a Waters ACQUITY BEH C18 1.7 μm 2.1 × 50 mm column, eluting with 0.1% formic acid in water or in acetonitrile, with a flow of 0.6 mL/min. The gradient indicated in Table 1 was used in this assay.
Compound concentration was calculated from the MS peak areas and expressed as the percentage of remaining compound at the different tested times.

physchem = details: PBS (99%) with DMSO (1%), 37 °C, aqueous buffer, kinetic from dmso stock, kinetic solubility
Method: The resulting solutions were incubated at 37 °C. After 2 h incubation, the samples were read using a BMG LABTECH NEPHELOstar Plus laser nephelometer (Ortenberg, Germany).

tau aggregation = molecular target: T2, tau aggregation (Homo sapiens, UniProt P10636); experiment: Tau aggregation inhibition in genetically modified E. coli cells (Th-S fluorescence); assay type: cell-based, Escherichia coli; details: live E. coli cells overexpressing tau; for inhibition at 10 µM: read-out: Tau Aggregation % inh. @10 µM
T2 construct: expressed in transfected cells; host or cells: E. coli BL21 (DE3) bearing pTARA and pRKT42
Method: For tau overexpression, M9 minimal medium (10 mL) containing glucose (0.5%), ampicillin (50 μg/mL), chloramphenicol (12.5 μg/mL), and E. coli BL21 (DE3) cells bearing the pTARA plasmid, which carries the RNA polymerase gene of the T7 phage (T7RP) under control of the PBAD promoter, and subsequent transformation with the pRKT42 vector were used instead. In this case, the overnight culture for a 1:500 dilution was added to fresh M9 minimal medium containing glucose (0.5%), chloramphenicol (12.5 μg/mL), ampicillin (50 μg/mL), and Th-S (250 µM).
as §1, §2

in vitro = details: PAMPA, PAMPA-BBB
Method: The parallel artificial membrane permeability assay for the blood–brain barrier (PAMPA-BBB) [41] was used to assess the in vitro brain permeability of the new compounds. For the assay, the compounds were dissolved in mixtures of PBS and ethanol (70:30).

[3] = Solubility class, classification after ref 70
[4] = Solubility, 2 h, DMSO (1%)/PBS (99%)
[5] = Solubility, 2 h, PBS with 1% DMSO, nephelometry
[6] = Brain Permeability Pe, mean ± SD
[7] = Brain permeability class, Table 4

T1 sequence (P05067 672-713): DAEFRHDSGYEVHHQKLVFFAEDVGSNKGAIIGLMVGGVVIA
T2 sequence (P10636 other isoform, or with tags, fused parts or gaps): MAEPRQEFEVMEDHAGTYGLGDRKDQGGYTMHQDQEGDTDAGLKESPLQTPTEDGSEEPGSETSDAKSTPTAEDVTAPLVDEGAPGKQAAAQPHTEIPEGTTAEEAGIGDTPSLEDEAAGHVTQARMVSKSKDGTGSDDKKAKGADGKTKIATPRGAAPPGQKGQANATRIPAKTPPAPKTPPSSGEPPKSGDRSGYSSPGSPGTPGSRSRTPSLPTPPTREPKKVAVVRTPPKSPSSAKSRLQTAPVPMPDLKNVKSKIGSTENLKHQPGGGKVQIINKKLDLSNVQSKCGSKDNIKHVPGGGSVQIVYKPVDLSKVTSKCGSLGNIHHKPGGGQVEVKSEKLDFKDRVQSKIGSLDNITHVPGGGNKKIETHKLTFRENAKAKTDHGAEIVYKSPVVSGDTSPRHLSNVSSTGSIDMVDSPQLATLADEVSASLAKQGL

Row | Compound | inhibition at 10 µM (Aβ42 aggregation) [%] | LC50 at 72 h [1] [µM] | remaining at 1 h, 5 μM [2] [%] | remaining at 6 h, 5 μM [2] [%] | solubility at 2 h (physchem; [3]) [µg/mL] | solubility at 2 h (physchem; [4]) [µg/mL] | solubility at 2 h (physchem; [5]) [µM] | inhibition at 10 µM (tau aggregation) [%] | Papp (in vitro; [6]) [×10⁻⁶ cm/s] | Papp (in vitro; [7]) [×10⁻⁶ cm/s] | Aβ42 Aggregation % inh. @10 µM (Aβ42 aggregation; live E. coli cells overexpressing Aβ42) [%] | Tau Aggregation % inh. @10 µM (tau aggregation) [%]
1 | CC1=CC2Cc3nc4cc(Cl)ccc4c(NCCCCCCCCCNC(=O)c4ccc5c(c4)C(=O)c4ccccc4-5)c3C(C1)C2 (stereo not drawn) [Compound 5, N-{9-[(3-Chloro-6,7,10,11-tetrahydro-9-methyl-7,11-methanocycloocta[b]quinolin-12-yl)amino]nonyl}-9-fluorenone-2-carboxamide] | 69.8 ± 1.2 | > 100 | 95.7 | 90.4 | < 10 | 5.4 | 8.1 | 68.9 ± 2.1 | 6.2 ± 0.8 | > 5.2 |  | 
2 | CC1=CC2Cc3nc4cc(Cl)ccc4c(NCCCCCCCCCNC(=O)c4ccc5c(c4)C(=O)c4ccccc4C5=O)c3C(C1)C2 (stereo not drawn) [Compound 4, N-{9-[(3-Chloro-6,7,10,11-tetrahydro-9-methyl-7,11-methanocycloocta[b]quinolin-12-yl)amino]nonyl}anthraquinone-2-carboxamide] | 73.3 ± 3.6 | > 100 | 96 | 90.1 | < 10 | 5.9 | 8.4 | 63 ± 3.5 | 9.2 ± 1.2 | > 5.2 |  | 
3 | CC1=CC2Cc3nc4cc(Cl)ccc4c(NCCCCCCCCCNC(=O)c4cccc(C(=O)c5ccccc5)c4)c3C(C1)C2 (stereo not drawn) [Compound 6, 3-Benzoyl-N-{9-[(3-chloro-6,7,10,11-tetrahydro-9-methyl-7,11-methanocycloocta[b]quinolin-12-yl)amino]nonyl}benzamide] | 72.6 ± 2.7 | 40.1 | 98.3 | 76.9 | < 10 | 8.4 | 12.5 | 62.5 ± 2.1 | 7.4 ± 0.3 | > 5.2 |  | 
4 | CC1=CC2Cc3nc4cc(Cl)ccc4c(NCCCCCCCCCNC(=O)c4cc(O)c5c(c4)C(=O)c4cccc(O)c4C5=O)c3C(C1)C2 (stereo not drawn) [Compound 3] | 74.2 ± 1.6 | > 100 | 97.2 | 92.9 | < 10 | 6.3 | 8.6 | 58.2 ± 1.8 |  | > 5.2 |  | 
5 | CC(=O)c1cccc(C(=O)NCCCCCCCCCNc2c3c(nc4cc(Cl)ccc24)CC2C=C(C)CC3C2)c1 (stereo not drawn) [Compound 7, 3-Acetyl-N-{9-[(3-chloro-6,7,10,11-tetrahydro-9-methyl-7,11-methanocycloocta[b]quinolin-12-yl)amino]nonyl}benzamide] | 73 | > 100 | 97.5 | 96 | 10 to 100 | 11 | 18 | 68 | 16.5 ± 1.1 | > 5.2 | 73.1 ± 4.8 | 68.3 ± 3.1
